Values quoted from earlier work, collected in patent publication US7906649B2, “Aminocyclohexanes as dipeptidyl peptidase-IV inhibitors for the treatment of diabetes” (Merck Sharp & Dohme Corp., priority 2005, dated 2011).

Key:
[1] = test system: cardiac allograft survival; details: rats; survival doubled from day 7
hematopoiesis = details: mouse, cyclophosphamide-induced neutropenia
[2] = test system: GRF degradation in plasma

For `CC(C)N1CCC(c2ccccc2)(c2ccccc2)CC1` [Prodipine, Pro-Pro-diphenyl-phosphonate], the cardiac allograft survival [1] is given as 14 day.
In the case of `CC(C)[C@H](N)C(=O)N1CCC[C@H]1B(O)O` [Val-Boro-Pro], the effect on hematopoiesis (hematopoiesis) is given as “stimulated hematopoiesis”.
For diprotin A, the “degradation of GRF to GRF[3-44] in plasma” value [2] is given as “prevented”.
